The text below walks through data of US11524046B2, “Biofilm prevention, disruption and treatment with bacteriophage lysin” (priority 2012, dated 2022).

Values after ≈ are worked out from the molar mass of the structure shown. Read-outs that look alike come from different tables or passages of the source. Marks after values point to notes of the source that are not given here.

Test [1] has as its system MRSA biofilms grown on catheters (strain ATCC BAA-42). Briefly: Catheter biofilm eradication in vitro, methylene blue staining. As to conditions: 1000×MIC, 24 hours.
Test [2] has the same test system. Briefly: Catheter biofilm residual CFU, BacTiter-Glo luciferase estimate.
The next test has as its system biofilms of BAA-42 MRSA. Briefly: Biofilm eradication in 24-well plates, crystal violet staining. As to conditions: for change in biofilm, visually: 1000 ug/ml (1000×MIC), 4 hours or 6 hours; for biofilm clearance: 1000×MIC, 24 hours. Type of test: cell-based, S. aureus.
In a further test the test system is S. aureus strains. As to the kind of experiment: PlySs2 and antibiotic MIC, broth microdilution, 80% growth inhibition (CLSI M07-A9). In kind it is cell-based. As to conditions: for MIC90: Staphylococcus aureus.
In the next test the test system is S. aureus biofilms. As to conditions: cited from earlier work; for effect on the established S. aureus biofilms: high concentrations: oxacillin 400, vancomycin 800, clindamycin 800 (printed ag/ml, tag/ml), 24 h.
Test [3] concerns methicillin resistant S. aureus MRSA strain ATCC BAA-42. As to the kind of experiment: MIC by broth microdilution (CLSI M07-A9) against strain ATCC BAA-42. In kind it is cell-based. As to conditions: ATCC BAA-42.
In test [4] the test system is ATCC BAA-42 MRSA biofilms. As to the kind of experiment: ClyS activity on biofilm in polystyrene plates, crystal violet staining. In kind it is cell-based, S. aureus. As to conditions: 24 hours.

As to `CCCCCCCCCC(=O)N[C@@H](Cc1c[nH]c2ccccc12)C(=O)N[C@H](CC(N)=O)C(=O)N[C@@H](CC(=O)O)C(=O)N[C@@H]1C(=O)NCC(=O)N[C@@H](CCCN)C(=O)N[C@@H](CC(=O)O)C(=O)N[C@H](C)C(=O)N[C@@H](CC(=O)O)C(=O)NCC(=O)N[C@H](CO)C(=O)N[C@@H]([C@H](C)CC(=O)O)C(=O)N[C@@H](CC(=O)c2ccccc2N)C(=O)O[C@@H]1C` [Daptomycin, daptomycin], in test [1], the “biofilm clearance from the catheter” value was “did not remove significant biofilm”. The CFU reduction entry is listed as “no CFU reduction” in test [2] (1×MIC, 24 hours) and “two log reduction” in test [2] (1000×MIC, 24 hours). Further, in test [2] (1000× MIC, 24 hours, from 100 million), the “CFUs remaining in catheter biofilm” value is given as 1 million. In test [2] (up to concentrations of 5000×MIC), the “removal of biofilm bacteria” value was “completely ineffective”. The “change in biofilm, visually” value with biofilms of BAA-42 MRSA is on record as “No change”. Also, the biofilm clearance result in the test with biofilms of BAA-42 MRSA is recorded as “no biofilm clearance”. Further, in the test with biofilms of BAA-42 MRSA (concentrations up to 10×MIC, up to 24 hours), the biofilm dissolution entry is “no dissolution”. Besides, the MIC90 in the test with S. aureus strains (DRSA (n = 8), read-out: MIC90) turned out to be 9.9 µM (≈ 16 µg/mL); in the test on S. aureus strains (LRSA (n = 5), read-out: MIC90) it was 0.6 µM (≈ 0.972 µg/mL); in the test on S. aureus strains (MRSA, MRSA (n = 45), read-out: MIC90), 0.6 µM (≈ 0.972 µg/mL); in the test on S. aureus strains (MSSA, MSSA (n-28), read-out: MIC90), 0.6 µM (≈ 0.972 µg/mL); in the test with S. aureus strains (VISA, VISA (n = 10), read-out: MIC90), 4.9 µM (≈ 7.94 µg/mL); in the test with S. aureus strains (VRSA, VRSA (n = 14), read-out: MIC90), 0.6 µM (≈ 0.972 µg/mL).
For the molecule “Lysostaphin: gene product of Staphylococcus simulans degrading the polyglycine crosslinks of the S. aureus cell wall”, the “effect on S. aureus biofilms in vitro on plastic and glass surfaces” value with S. aureus biofilms (lysostaphin-sensitive S. aureus) was “disrupted the extracellular matrix”.
On to `CC(=O)NC[C@H]1CN(c2ccc(N3CCOCC3)c(F)c2)C(=O)O1` [Linezolid, linezolid], for which the “change in biofilm, visually” value with biofilms of BAA-42 MRSA is listed as “No change”. Moreover, in the test with biofilms of BAA-42 MRSA, the biofilm clearance entry is recorded as “no biofilm clearance”. In addition, the MIC50/90 with S. aureus strains (DRSA (n = 8)) is given as 2; against S. aureus strains (LRSA (n = 5)), over 64; against S. aureus strains (MRSA (n = 45)), 2; with S. aureus strains (MSSA (n-28)) it was 2; against S. aureus strains (VISA (n = 10)), 2; against S. aureus strains (VRSA (n = 14)), 2. Besides, the “MIC50/90 [uM]” value with S. aureus strains (DRSA (n = 8)) is 5.7 µM (≈ 1.92 µg/mL); with S. aureus strains (LRSA (n = 5)) it was over 183 µM; with S. aureus strains (MRSA (n = 45)), 5.7 µM (≈ 1.92 µg/mL); with S. aureus strains (MSSA (n-28)) it was 5.7 µM (≈ 1.92 µg/mL); against S. aureus strains (VISA (n = 10)) it was 5.7 µM (≈ 1.92 µg/mL); against S. aureus strains (VRSA (n = 14)), 5.7 µM (≈ 1.92 µg/mL).
Consider `CN[C@H](CC(C)C)C(=O)N[C@H]1C(=O)N[C@@H](CC(N)=O)C(=O)N[C@H]2C(=O)N[C@H]3C(=O)N[C@H](C(=O)N[C@H](C(=O)O)c4cc(O)cc(O)c4-c4cc3ccc4O)[C@H](O)c3ccc(c(Cl)c3)Oc3cc2cc(c3O[C@@H]2O[C@H](CO)[C@@H](O)[C@H](O)[C@H]2O[C@H]2C[C@](C)(N)[C@H](O)[C@H](C)O2)Oc2ccc(cc2Cl)[C@H]1O` [Vancomycin, vancomycin], for which, in the test on S. aureus biofilms, the “effect on the established S. aureus biofilms” value is given as “no effect”. The “change in biofilm, visually” value in the test on biofilms of BAA-42 MRSA is recorded as “No change”. For the same molecule, the biofilm clearance result in the test with biofilms of BAA-42 MRSA was “no biofilm clearance”. Further, the MIC90 was 0.7 µM (≈ 1.01 µg/mL) in the test with S. aureus strains; 0.7 µM (≈ 1.01 µg/mL) with S. aureus strains (MRSA); 0.7 µM (≈ 1.01 µg/mL) with S. aureus strains (MSSA); 2.7 µM (≈ 3.91 µg/mL) in the test with S. aureus strains (VISA); over 10.6 µM in the test on S. aureus strains (VRSA).
Take `Cc1onc(-c2ccccc2)c1C(=O)N[C@@H]1C(=O)N2[C@@H]1SC(C)(C)[C@@H]2C(=O)O` [Oxacillin, oxacillin]: the “effect on the established S. aureus biofilms” value with S. aureus biofilms is “no effect”. In the test with S. aureus strains (MRSA (n = 45)), the MIC50/90 is given as >4* and the “MIC50/90 [uM]” value was over 10.0 µM.

B1: ClyS: chimeric lysin with activity against Staphylococci, detailed in WO 2010/002959; SEQ ID NO: 5 (protein, listed as Staphylococcus aureus)
chain: METLKQAESYIKSKVNTGTDFDGLYGYQCMDLAVDYIYHVTDGKIRMWGNAKDAINNSFGGTATVYKNYPAFRPKYGDVVVWTTGNFATYGHIAIVTNPDPYGDLQYVTVLEQNWNGNGIYKTELATIRTHDYTGITHFIRPNFATESSVKKKDTKKKPKPSNRDGLNKDKIVYDRTNINYNMVLQGKSASKITVGSKAPYNLKWSKGAYFNAKIDGLGATSATRYGDNRTNYRFDVGQAVYAPGTLIYVFEIIDGWCRIYWNNHNEWIWHERLIVKEVF
For the molecule B1, the “MIC of the ClyS lysin” value in test [3] came out at 32 µg/mL. In addition, the biofilm dispersal result was “somewhat” in test [4] (0.032 μg/ml), “Reduction in stained biofilm” in test [4] (0.32 μg/ml), “effectively disperses” in test [4] (3.2 μg/ml (0.1× MIC)) and “effectively disperses” in test [4] (32 μg/ml (1×MIC)).
